The subject of one assay is PUMA expression. Put plainly: Cell-based Puma expression assay (western blot). The arrangement: species or system human. How it is done: Biological Example 4: Puma Expression and Caspases Activation Assay
Protocols for Cell-Based Puma Expression and Caspase Activation Assays
Cell lines: All human tumor-derived cancer cell lines were purchased from American Type Culture Collection. Human tumor-derived cancer cell lines Panc-1 (expressing KRas G12D mutant), MiaPaca-2 (expressing KRas G12C mutant), A549 (expressing KRas G12S mutant), and A375 (expressing wild type KRas) were grown in complete DMEM-High Glucose medium and NCI-H1975 (expressing wild type KRas), MM.1R (expressing wild type KRas) and IM.9 (expressing wild type KRas) were grown in RPMI1640 medium. Human tumor-derived cancer cell line BT-549 (expressing wild type KRas) was grown in RPMI1640 medium with 11.8U insulin. All mediums were supplemented with penicillin (100 U/mL), streptomycin (100 μg/mL), and 10% heat-inactivated FBS at 37° C. in a humidified incubator with 5% CO2.
Method: Cells were plated at 300,000 to 800,000 cells/well density in a 6-well plate in the presence of 10% FBS. The next day small molecules to be tested were added to the cells in the final concentration of 3 μM in the presence of 0.3% DMSO for 48 hours incubation at 37° C. For IC50 value determination, serial dilutions of compounds were added to cells under the same conditions. Following 48 hours of incubation cells were lysed with lysis buffer containing 1% Triton X-100, EDTA, and Halt™ Protease & Phosphatase Inhibitor Cocktail (Thermo Scientific). Protein concentration was assessed by BCA protein assay (Thermo Scientific). Increase expression of PUMA and active/cleaved forms of caspase 3, caspase 6 and caspase 9 were detected by western blot.
Western blot protocol: Equal amounts of protein (15-50 μg) were separated by SDS-PAGE and transferred to nitrocellulose membranes (Invitrogen by Thermo Fisher Scientific). The membrane was stained with Ponceau S Stain (Boston BioProducts) to verify uniform protein loading. Membranes were blocked with 10% milk and expression levels of PUMA was assessed by incubating overnight at 4° C. with the antibody PUMA (D30C10) from Cell Signaling Technology (#12450) and active/cleaved forms of caspase 3, caspase 6 and caspase 9 by incubating overnight at 4° C. with the following antibodies: cleaved caspase-3 (Asp175) (5A1E), cleaved caspase-6 (Asp162) and cleaved caspase-9 (Asp330) (D2D4) (all antibodies from Cell Signaling Technology). Then the membranes were incubated with HRP-conjugated secondary antibody (Jackson Immunoresearch, West Grove, PA). Bands were incubated in Amersham ECL Prime Western Blotting Detection Reagent (GE Healthcare) and visualized using the ChemiDoc MP imaging system (Bio-Rad).
For orientation: A western blot detects proteins with antibodies after separation by electrophoresis.

For assay [1], the system named is SW-620 (expressing KRas G12V mutant). Description: Proliferation Assay (Cell Viability Assay). Type of assay: cell-based. The conditions noted are these: Homo sapiens, SW-620, colon. The procedure: (§1) Cell lines: Human tumor-derived cell lines were purchased from American Type Culture Collection. Human tumor-derived pancreatic cancer cell line MiaPaca-2 (expressing KRAS G12C mutant) and Panc-1 (expressing KRas G12D mutant), and Human non-small cell lung cancer (NSCLC) cell line A549 (expressing KRas G12S mutant) were grown in complete DMEM-High Glucose medium. Human colon cancer cell line SW-620 (expressing KRas G12V mutant) was grown in RPMI 1640 medium. All cell lines were supplemented with penicillin (100 U/mL), streptomycin (100 μg/mL), and 10% heat-inactivated FBS at 37° C. in a humidified incubator with 5% CO2.
(§2) Method: Cells were plated at 2000 to 5000 cells/well density in 96-wells plate and cultured overnight. Small molecules to be tested were added to the cells in the final concentration of 10 μM in the presence of 0.3% DMSO and 10% FBS and incubated for 2-4 days at 37° C. in a humidified incubator with 5% CO2. For IC50 value determination, serial dilutions of compounds were added to cells under the same conditions.
(§3) Assay: At the end of the incubation period, cell viability was determined using the CellTiter 96® Aqueous One Solution Cell Proliferation Assay according to manufacturer specifications (Promega, Madison, WI). The percentage of small molecules inhibition of cellular proliferation was calculated from raw data.
(§4) Cell lines: these Human tumor-derived cell lines were purchased from American Type Culture Collection. Human tumor-derived pancreatic cancer cell line MiaPaca-2 (expressing KRAS G12C mutant) and Panc-1 (expressing KRas G12D mutant), and Human non-small cell lung cancer (NSCLC) cell line A549 (expressing KRas G12S mutant), and Human melanoma cell line A375 (wild type Kras) were grown in complete DMEM-High Glucose medium. Human tumor-derived pancreatic cancer cell lines SU86.86 (expressing KRas G12D mutant), BxPC3 (expressing wild type K-Ras), and Human non-small cell lung cancer (NSCLC) cell lines NCI-H441 (expressing KRas G12S mutant), NCI-H1975 (expressing wild type KRas), NCI-H358 (expressing KRas G12C mutant), NCI-H1299 (expressing NRas Q61H mutant), and Human colon cancer cell line SW-620 (expressing KRas G12V mutant), Human triple negative breast cancer cell line HCC-1806 (expressing wild type KRas), and Human tumor-derived multiple myeloma cell line MM.1R (expressing wild type KRAS), were grown in RPMI 1640 medium. Human tumor-derived breast cancer cell line BT-549 (expressing wild type KRAS) was grown in RPMI 1640 medium in the presence of 11.8U insulin. Human tumor-derived pancreatic cancer cell line HPAF-II (expressing KRas G12D mutant), Human triple negative breast cancer cell line BT-20 (expressing wild type KRas), and Human colon cancer cell line LS123 (expressing KRas G12S mutant), were grown in EMEM medium. Human tumor-derived pancreatic cancer cell line CF-PAC1 (expressing KRas G12V mutant) was frown in IMDM medium, and Human colon cancer cell line HT29 (expressing wild type KRas) was grown in McCoy's 5A medium. The colon cancer cell line GP2d (expressing KRas G12D mutant) was purchased from MilliporeSigma and grown in DMEM-High Glucose medium. All cell lines were supplemented with penicillin (100 U/mL), streptomycin (100 μg/mL), and 10% heat-inactivated FBS at 37° C. in a humidified incubator with 5% CO2.
(§5) Method: Cells were plated at 2000 to 5000 cells/well density in 96-wells plate and cultured overnight. Small molecules that were tested were added to the cells in the final concentration of 10 μM in the presence of 0.3% DMSO and 10% FBS, and incubated for 2-4 days at 37° C. in a humidified incubator with 5% CO2. For IC50 value determination, serial dilutions of compounds were added to cells under the same conditions.

Assay [2] has as its system Panc-1 (expressing KRas G12D mutant). Put plainly: Proliferation Assay (Cell Viability Assay). In kind it is cell-based. The conditions noted are these: Homo sapiens, Panc1, pancreatic. The procedure:
as §1, §2, §3, §4, §5

The subject of assay [3] is A549 (expressing KRas G12S mutant). Put plainly: Proliferation Assay (Cell Viability Assay). Type of assay: cell-based. As to conditions: Homo sapiens, A549, NSCLC. The procedure: as §1, §2, §3, §4, §5
Assay [4] has as its system BT-20 (expressing wild type KRas). Put plainly: Proliferation Assay (Cell Viability Assay). Type of assay: cell-based. The conditions noted are these: Homo sapiens; BT-20, Breast (TNBC), KRas WT. The essentials: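 Cells plated at 2000–5000/well overnight, then treated 2–4 days at 37 °C, 5% CO2 with compound at 10 μM single dose or serial dilutions for IC50, in 0.3% DMSO and 10% FBS. Viability read by CellTiter 96 Aqueous One (MTS); % proliferation inhibition calculated from raw data.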

The IC50 is the midpoint of a concentration-inhibition curve. High values mean weaker potency, low ones greater potency.

Molecules are shown by their SMILES.

As to `COc1ccnc(Nc2nc(-c3nccn3C)nn3cc(-c4ccn(C(C)C)n4)c(C)c23)c1` [Compound 58, 6-(1-Isopropyl-1H-pyrazol-3-yl)-N-(4-methoxypyridin-2-yl)-5-methyl-2-(1-methyl-1H-imidazol-2-yl)pyrrolo[2,1-f][1,2,4]triazin-4-amine], the “Increased PUMA expression” value in the assay with PUMA expression (A549, after 48 hours) was “yes”; in the assay on PUMA expression (BT-549, after 48 hours), “yes”; in the assay with PUMA expression (MiaPaca2, after 48 hours) it was “yes”. Besides, the half-inhibitory concentration (IC50) in assay [1], in assay [2], in assay [3] and in assay [4] was below 150 nM in each case.

Values taken from patent US12459951B2, “Compounds that interact with RAS superfamily proteins for treatment of cancers, inflammatory diseases, rasopathies, and fibrotic disease” (SHY Therapeutics, LLC, priority 2022, dated 2025).
